Data published in patent publication US20210338749A1, “METHODS OF TREATMENT OF INFLAMMATORY CONDITIONS AND ASSOCIATED INFECTIONS” (Servatus Ltd., priority 2018, published 2021).

Experiments:
[1] = test system: DSS-induced ulcerative colitis; details: chronic 2% DSS murine model, previous data obtained by CRL; cited from earlier work
[2] = test system: Campylobacter jejuni (ATCC 33291); assay: Agar well diffusion assay; format: cell-based; details: C. jejuni; 100 μL culture per 9 mm well, 24 hours; ciprofloxacin 5 μg
Protocol: (§1) The ability of the Lactobacillus species L. diolivorans, L. paracasei, L. parafarraginis, L. rapi and L. zeae deposited pursuant to the Budapest Treaty as described hereinbefore were tested for their ability to inhibit the growth of bacterial pathogens associated with inflammation and various inflammatory conditions. Pathogens tested for this purpose were Campylobacter jejuni (ATCC 33291), Helicobacter pylori (ATCC 700824), Clostridium difficile (ATCC 9689), Salmonella typhimurium (ATCC 29630), Yersinia enterocolitica (ATCC 23715), Citrobacter sp (ATCC 51378), Streptococcus pyogenes (ATCC 19615), Streptococcus mutans (ATCC 25175), Klebsiella oxytoca (ATCC 700324), and Proteus mirabilis (ATCC 25933). C. jejuni and H. pylori were grown under microaerobic conditions at 37° C. in 5% Columbia horse blood agar (CBA). S. typhimurium, Y. enterocolitica, Citrobacter sp., K. oxytoca and P. mirabilis were grown under aerobic conditions at 37° C. in nutrient agar. S. pyogenes and S. mutans were grown under aerobic conditions with 5% CO2 at 37° C. in 5% CBA. C. difficile was grown under anaerobic conditions at 37° C. in 5% CBA.
(§2) Inhibition of pathogen growth was determined using an agar well diffusion assay. Cultures of the five test Lactobacillus species were grown in MRS broth for 24 hours at 37° C. Each pathogen was sub-cultured onto nutrient agar plates or 5% CBA plates and incubated under the appropriate conditions (as described above) prior to resuspension in DPBS to give a McFarland standard of 0.5 (equivalent to 10^8 CFU/mL). Each 0.5 McFarland standardised culture was spread, using a swab, onto nutrient agar plates or CBA plates and allowed to soak in prior to making 9 mm wells. 100 μL of each test Lactobacillus, was then added to individual wells and the plates were incubated for 24 hours at 37° C. […] Following incubation, zones of inhibition or zones of growth reduction (hazing of growth) were measured (mm) and recorded. Two readings were taken for each zone and three replicates were used.

[3] = test system: Citrobacter sp (ATCC 51378); assay: Agar well diffusion assay; format: cell-based; details: 100 μL culture per 9 mm well, 24 hours, ciprofloxacin 5 μg
Protocol: as §1, §2

[4] = test system: Helicobacter pylori (ATCC 700824); assay: Agar well diffusion assay; format: cell-based; details: H. pylori; 100 μL culture per 9 mm well, 24 hours; ciprofloxacin 5 μg
Protocol: as §1, §2

[5] = test system: Klebsiella oxytoca (ATCC 700324); assay: Agar well diffusion assay; format: cell-based; details: K. oxytoca; 100 μL culture per 9 mm well, 24 hours; ciprofloxacin 5 μg
Protocol: as §1, §2

[6] = test system: Proteus mirabilis (ATCC 25933); assay: Agar well diffusion assay; format: cell-based; details: P. mirabilis; 100 μL culture per 9 mm well, 24 hours; ciprofloxacin 5 μg
Protocol: as §1, §2

[7] = test system: Salmonella typhimurium (ATCC 29630); assay: Agar well diffusion assay; format: cell-based; details: S. typhimurium; 100 μL culture per 9 mm well, 24 hours; ciprofloxacin 5 μg
Protocol: as §1, §2

[8] = test system: Streptococcus mutans (ATCC 25175); assay: Agar well diffusion assay; format: cell-based; details: S. mutans; 100 μL culture per 9 mm well, 24 hours; ciprofloxacin 5 μg
Protocol: as §1, §2

[9] = test system: Streptococcus pyogenes (ATCC 19615); assay: Agar well diffusion assay; format: cell-based; details: S. pyogenes; 100 μL culture per 9 mm well, 24 hours; ciprofloxacin 5 μg
Protocol: as §1, §2

[10] = test system: Yersinia enterocolitica (ATCC 23715); assay: Agar well diffusion assay; format: cell-based; details: Y. enterocolitica; 100 μL culture per 9 mm well, 24 hours; ciprofloxacin 5 μg
Protocol: as §1, §2

[11] = test system: Escherichia coli K12; assay: Agar well diffusion assay; format: cell-based; details: E. coli, includes well diameter of 9 mm
Protocol: as §2
(§3) The ability of L. diolivorans, L. paracasei, L. parafarraginis, L. rapi and L. zeae deposited pursuant to the Budapest Treaty as described hereinbefore were then tested for their ability to inhibit the growth of pathogenic bacteria Staphylococcus aureus (ATCC 29213 and ATCC 25923), Staphylococcus epidermidis (clinical isolate), Pseudomonas aeruginosa (ATCC 27853) and Escherichia coli K12. These pathogens were grown under aerobic conditions at 37° C. in nutrient agar. Inhibition of growth was determined using an agar well diffusion assay as described above. In addition, cell free supernatants derived from culture of the Lactobacillus species were also tested. Briefly, after 24 hours growth, cultures of Lactobacillus were centrifuged at 10,000×g and the supernatant filter sterilised through a 0.2 μm membrane. 100 μl of cell free supernatant was added to the wells containing pathogen.

[12] = test system: Pseudomonas aeruginosa (ATCC 27853); assay: Agar well diffusion assay; format: cell-based; details: P. aeruginosa, includes well diameter of 9 mm
Protocol: as §2, §3

[13] = test system: Staphylococcus aureus (ATCC 25923); assay: Agar well diffusion assay; format: cell-based; details: S. aureus (ATCC 25923), includes well diameter of 9 mm
Protocol: as §2, §3

[14] = test system: Staphylococcus aureus (ATCC 29213); assay: Agar well diffusion assay; format: cell-based; details: S. aureus (ATCC 29213), includes well diameter of 9 mm
Protocol: as §2, §3

[15] = cell free supernatants derived from Lactobacilli cultures

For `Nc1ccc(O)c(C(=O)O)c1` [5-Aminosalicylic acid], which “Therapeutic efficacy (DAI score)” value [1] is on record?
The value was “failed to demonstrate therapeutic efficacy”.

For `Nc1nc2nc[nH]c2c(=S)[nH]1` [6-Thioguanine], which “Therapeutic efficacy (DAI score)” value [1] is on record?
The value was “failed to demonstrate therapeutic efficacy”.

With `O=C(O)c1cn(C2CC2)c2cc(N3CCNCC3)c(F)cc2c1=O` [Ciprofloxacin, ciprofloxacin] as the compound, how does the “Zones of inhibition/zones of growth reduction” value [2] read?
The value was 30.2 mm.

And the “Zones of inhibition/zones of growth reduction” value [3]?
Its value is 47.0 mm.

And the “Zones of inhibition/zones of growth reduction” value [4]?
The value was 31.7 mm.

And the “Zones of inhibition/zones of growth reduction” value [5]?
Its value is 41.2 mm.

What about the “Zones of inhibition/zones of growth reduction” value [6] of the same compound?
The value was 44.2 mm.

What about the “Zones of inhibition/zones of growth reduction” value [7] of the same compound?
Its value is 49 mm.

And the “Zones of inhibition/zones of growth reduction” value [8]?
The value was 28.5 mm.

What about the “Zones of inhibition/zones of growth reduction” value [9] of the same compound?
The value was 30.2 mm.

What about the “Zones of inhibition/zones of growth reduction” value [10] of the same compound?
Its value is 44.2 mm.

What about the “Zones of inhibition/zones of growth reduction” value [11, 15] of the same compound?
The value was 40.0 mm.

What about the “Zones of inhibition/zones of growth reduction” value ([11]; live cultures of Lactobacilli) of the same compound?
The value was 40.0 mm.

And the “Zones of inhibition/zones of growth reduction” value [12, 15]?
The value was 39.2 mm.

What about the “Zones of inhibition/zones of growth reduction” value ([12]; live cultures of Lactobacilli) of the same compound?
Its value is 39.2 mm.

And the “Zones of inhibition/zones of growth reduction” value [13, 15]?
The value was 33.7 mm.

What about the “Zones of inhibition/zones of growth reduction” value ([13]; live cultures of Lactobacilli) of the same compound?
Its value is 33.7 mm.

What about the “Zones of inhibition/zones of growth reduction” value [14, 15] of the same compound?
The value was 33.7 mm.

What about the “Zones of inhibition/zones of growth reduction” value ([14]; live cultures of Lactobacilli) of the same compound?
Its value is 33.7 mm.

For `C[C@]12C=CC(=O)C=C1CC[C@@H]1[C@@H]2[C@@H](O)C[C@@]2(C)[C@H]1CC[C@]2(O)C(=O)CO` [Prednisolone], which “Therapeutic efficacy (DAI score)” value [1] is on record?
Its value is “failed to demonstrate therapeutic efficacy”.

Which “Therapeutic efficacy (DAI score)” value [1] does the source give for `O=C(O)c1cc(/N=N/c2ccc(S(=O)(=O)Nc3ccccn3)cc2)ccc1O` [Sulfasalazine] here?
The value was “failed to demonstrate therapeutic efficacy”.
